Assay results published in ChEMBL document CHEMBL3045915, “Microwave-assisted, one-pot syntheses and fungicidal activity of polyfluorinated 2-benzylthiobenzothiazoles” (2006).

Key:
Assay type in all cases: functional
Dothiorella gregaria = assay: Fungicidal activity against Dothiorella gregaria assessed as inhibition of fungal growth at 50 ug/ml after 48 hr
Botrytis cinerea = assay: Fungicidal activity against Botryotinia fuckeliana Pers assessed as inhibition of fungal growth at 50 ug/ml after 48 hr
Colletotrichum gossypii = assay: Fungicidal activity against Colletotrichum gossypii assessed as inhibition of fungal growth at 50 ug/ml after 48 hr
Rhizoctonia solani = assay: Fungicidal activity against Rhizoctonia solani assessed as inhibition of fungal growth at 50 ug/ml after 48 hr

SMILES	inhibition at 50 µg/mL (Dothiorella gregaria) [%]	inhibition at 50 µg/mL (Botrytis cinerea) [%]	inhibition at 50 µg/mL (Colletotrichum gossypii) [%]	inhibition at 50 µg/mL (Rhizoctonia solani) [%]
Fc1ccccc1CSc1nc2c(F)cccc2s1	78	81	67	82
Fc1cccc(F)c1CSc1nc2ccc(F)c(F)c2s1	81	69	63	82
Fc1ccccc1CSc1nc2ccc(F)c(F)c2s1	81	86	74	84
Fc1ccc(CSc2nc3ccc(F)c(F)c3s2)cc1F	85	72	80	85
Fc1ccc2sc(SCc3ccc(F)c(F)c3)nc2c1	78	69	74	86
Fc1cccc(F)c1CSc1nc2c(Cl)cc(C(F)(F)F)cc2s1	62	67	44	69
Fc1ccc(CSc2nc3c(F)cccc3s2)cc1F	89	97	78	92
Fc1cccc(F)c1CSc1nc2c(F)cccc2s1	63	78	52	74
Fc1ccc2sc(SCc3ccccc3F)nc2c1	81	83	67	82
Fc1ccc(CSc2nc3c(Cl)cc(C(F)(F)F)cc3s2)cc1F	35	67	37	40
Fc1ccccc1CSc1nc2c(Cl)cc(C(F)(F)F)cc2s1	70	83	70	83
CC(C)(C)C(=O)C(Oc1ccc(Cl)cc1)n1cncn1 (configuration not stated) [TRIADIMEFON]	61	84	95	90
Fc1ccc2sc(SCc3c(F)cccc3F)nc2c1	74	78	56	80
